Laboratory results as given in patent EP0388528B1, “Carboximidamide derivatives” (KIRIN BEER KABUSHIKI KAISHA, priority 1988, dated 1990).

Tests used:
[1] = system: spontaneous hypertensive rats (SHR); assay: Hypotensive effect on spontaneous hypertensive rats (orally); type: in vivo; details: systolic pressure 2 hours after administration
Procedure: Systolic pressure of the rats fasted for 24 hour was measured by using the tail cuff method before and 2 hours after administration of the compound. The compound was dissolved in a mixed solvent of polyethylene glycol 200 : physiological saline = 1:1. The control group was administered the solvent alone. The change in blood pressure was expressed as percent of the blood pressure before the administration of the compound in respective groups.

isolated rat aortae = assay: Vasorelaxing effect on the isolated rat aortae (Referential Example 1)-1); details: inhibition of contraction induced by 40 mM KCl
Procedure: The compounds of the present invention were tested for their physiological activities by measuring the tension of isolated rat aortae isometrically.
Thoracic aortae obtained from male Wistar rats (weighing 250-350 g) were cut into ring segments about 3 mm long. The ring preparation was placed in an organ bath filled with 10 ml of Krebs-Ringer solution that was maintained at 37°C and gassed with 95% O₂ - 5% CO₂.
The preparation in the organ bath was allowed to equilibrate under resting tension of 1 g. After equilibration period, the solution in the organ bath was replaced with an isotonic solution containing 40 mM KCl to contract the preparation.
After the contraction induced by KCl had reached plateau, the concentration-response relationship for the test compound was determined by means of cumulative addition.
The relaxation response of the test compounds was expressed as the percent inhibition of the contraction induced by KCl, and the IC₅₀ value, which is a concentration required for inhibiting the contraction induced by KCl to an extent of 50%, was calculated by the Probit method from the concentration-response curve.

[2] = Acute toxicity (oral administration); details: mouse, in vivo, male ddY mice, read-out: LD₅₀
Procedure: Using male ddY mice (4 week old), acute toxicity on the oral administration of the compound of the present invention was examined [test compound: N-cyano-N′-(2-nitroxyethyl)-3-pyridinecarboximidamide (compound (13))]. As a result, LD₅₀ was about 400 mg/kg.

beagles = assay: Hemodynamic profile in beagles (intraduodenally); type: in vivo; details: intraduodenal 100 µg/kg, percent change from pretreatment; for Total Peripheral Resistance: mean aortic blood pressure / (coronary + aortic blood flow)
Procedure: The aortic blood pressure, the heart rate and the coronary blood flow of the beagles anesthetized with pentobarbital were determined in the same manner as in the aforementioned Example 1)-7, and the aortic blood flow was measured with an electromagnetic flowmeter (MFV-3100, manufactured by Nihon Kohden) by attaching a probe at the origin of the aorta [test compound: N-cyano-N′-(2-nitroxyethyl)-3-pyridinecarboximidamide (compound (13))]. A nelaton's tube was inserted into the duodenum via a small abdominal incision for administration of the compound (13) (100 µg/kg). Time course changes in respective measurement items were expressed as percent changes from the pretreatment values. Total peripheral resistance was calculated by dividing the mean aortic blood pressure with the sum of the coronary blood flow and the aortic blood flow.

potassium channel = assay: Potassium channel activating effect (86Rb efflux from rat thoracic aorta); details: compound 10⁻⁴ M for 8 minutes, percent of the efflux before application
Procedure: Male Wistar rats (weighing 250-350 g) were dehematized to death, and thoracic aortae were rapidly isolated. The aorta was opened along the longitudinal axis to prepare a flat sheet. The preparation was loaded with ⁸⁶Rb in the Krebs-Ringer solution which contained ⁸⁶Rb in the concentration of 10 µCi/ml and was gassed with 95% O₂ - 5% CO₂ at 37°C for 2 hours. The preparation was then transferred to a Krebs-Ringer solution not containing ⁸⁶Rb, and washed to remove excess radioactivity for 18 minutes by refreshing the solution every 2 minutes. Finally the preparation was placed into a Krebs-Ringer solution containing each compound (10⁻⁴ M) for 8 minutes.
The amount of ⁸⁶Rb efflux from the preparation in each period was determined with a γ-counter.
The increment in efflux rate during the application of the compound was expressed as percent of the efflux before the application of the compound.

male ddY mice = assay: Effect on hypoxia (survival time in mice); type: in vivo
Procedure: The effect of the compound of the present invention [test compound: N-cyano-N′-(2-nitroxyethyl)-3-pyridinecarboximidamide (compound (13))] on hypoxia was examined in male ddY mice (4 week old). Mice were exposed to a gas mixture of 96% N₂ - 4% O₂ that was streamed in a flow rate of 5 ℓ/min.
The time from the onset of the gas stream till the stop of respiration [survival time (sec)] was measured.
The test compound was orally administered in the dosage form of a 2% suspension in gum arabic 30 minutes before the onset of the gas streaming. The control group was administered a gum arabic suspension only.

N#CNC(=NCCO[N+](=O)[O-])c1cccnc1 [Compound (13), N-cyano-N'-(2-nitroxyethyl)-3-pyridinecarboximidamide]
Decreasing Rate of Blood Pressure (%) ([1]; 0.3 mg/kg p.o.): 6.76 ± 1.53%
Decreasing Rate of Blood Pressure (%) ([1]; 0.5 mg/kg p.o.): 9.12 ± 2.41%
Decreasing Rate of Blood Pressure (%) ([1]; 1.0 mg/kg p.o.): 27.31 ± 2.32%
Decreasing Rate of Blood Pressure (%) ([1]; 3.0 mg/kg p.o.): 49.99 ± 2.48%
IC50 (isolated rat aortae): 5.1 µM
LD50 [2]: ~400 mg/kg
Aortic Blood Flow (beagles; 1 min after dosage): 10.0%
Coronary Blood Flow (beagles; 1 min after dosage): 1.8± 1.8%
Heart Rate (beagles; 1 min after dosage): 0%
Mean Aortic Blood Pressure (beagles; 1 min after dosage): -9.8± 1.0%
Total Peripheral Resistance (beagles; 1 min after dosage): -17.8%
Aortic Blood Flow (beagles; 2 min after dosage): 12.2%
Coronary Blood Flow (beagles; 2 min after dosage): 14.4± 2.1%
Heart Rate (beagles; 2 min after dosage): 1.6± 1.6%
Mean Aortic Blood Pressure (beagles; 2 min after dosage): -14.3± 1.3%
Total Peripheral Resistance (beagles; 2 min after dosage): -24.1%
Aortic Blood Flow (beagles; 3 min after dosage): 15.1%
Coronary Blood Flow (beagles; 3 min after dosage): 38.4± 9.1%
Heart Rate (beagles; 3 min after dosage): 0%
Mean Aortic Blood Pressure (beagles; 3 min after dosage): -21.2± 1.2%
Total Peripheral Resistance (beagles; 3 min after dosage): -33.7%
Aortic Blood Flow (beagles; 5 min after dosage): 27.0%
Coronary Blood Flow (beagles; 5 min after dosage): 121.5± 22.0%
Heart Rate (beagles; 5 min after dosage): -12.1± 5.1%
Mean Aortic Blood Pressure (beagles; 5 min after dosage): -35.0± 2.0%
Total Peripheral Resistance (beagles; 5 min after dosage): -49.5%
Aortic Blood Flow (beagles; 7.5 min after dosage): 25.5%
Coronary Blood Flow (beagles; 7.5 min after dosage): 142.3± 6.5%
Heart Rate (beagles; 7.5 min after dosage): -17.5± 4.1%
Mean Aortic Blood Pressure (beagles; 7.5 min after dosage): -37.0± 2.9%
Total Peripheral Resistance (beagles; 7.5 min after dosage): -50.3%
Aortic Blood Flow (beagles; 10 min after dosage): 15.0%
Coronary Blood Flow (beagles; 10 min after dosage): 112.8± 10.6%
Heart Rate (beagles; 10 min after dosage): -21.1± 4.4%
Mean Aortic Blood Pressure (beagles; 10 min after dosage): -42.0± 2.9%
Total Peripheral Resistance (beagles; 10 min after dosage): -51.1%
Aortic Blood Flow (beagles; 20 min after dosage): 10.7%
Coronary Blood Flow (beagles; 20 min after dosage): 64.2± 15.4%
Heart Rate (beagles; 20 min after dosage): -26.1± 5.5%
Mean Aortic Blood Pressure (beagles; 20 min after dosage): -49.4± 3.1%
Total Peripheral Resistance (beagles; 20 min after dosage): -55.3%
Aortic Blood Flow (beagles; 30 min after dosage): 8.3%
Coronary Blood Flow (beagles; 30 min after dosage): 60.1± 15.1%
Heart Rate (beagles; 30 min after dosage): -26.5± 4.6%
Mean Aortic Blood Pressure (beagles; 30 min after dosage): -49.0± 3.7%
Total Peripheral Resistance (beagles; 30 min after dosage): -55.8%
Aortic Blood Flow (beagles; 60 min after dosage): 0.5%
Coronary Blood Flow (beagles; 60 min after dosage): 28.0± 11.6%
Heart Rate (beagles; 60 min after dosage): -10.0± 1.4%
Mean Aortic Blood Pressure (beagles; 60 min after dosage): -36.5± 7.3%
Total Peripheral Resistance (beagles; 60 min after dosage): -44.3%
Increment of Efflux (%) (potassium channel): 213.53%
Survival Time (sec) mean ± S.E.M. (male ddY mice; 0.3 mg/kg orally 30 minutes before 96% N₂ - 4% O₂): 130.27 ± 9.32 s
Survival Time (sec) mean ± S.E.M. (male ddY mice; 1.0 mg/kg orally 30 minutes before 96% N₂ - 4% O₂): 201.00 ± 13.40 s
Survival Time (sec) mean ± S.E.M. (male ddY mice; 3.0 mg/kg orally 30 minutes before 96% N₂ - 4% O₂): 523.15 ± 48.57 s
